Values of other authors, collected in patent US20250114332A1 (LABORATORIOS SILANES S.A. DE C.V., priority 2023, published 2025).
Read-outs that look alike come from different tables or passages of the source.

Settings: drug substance

Row | Compound | Biopharmaceutical classification | Biopharmaceutical classification (listed as acetaminophen)
1 | CC(=O)Nc1ccc(O)cc1 [Acetaminophen, N-(4-hydroxyphenyl) acetamide] | Group III (high solubility and low permeability) | group III
2 | Cc1ccc(-c2cc(C(F)(F)F)nn2-c2ccc(S(N)(=O)=O)cc2)cc1 [Celecoxib] | Belongs to group II (high permeability and low | 
